The values that follow come from patent publication US20260070887A1 (Shenzhen Zhongge Biological Technology Co., Ltd., priority 2022, published 2026).

Read-outs that look alike come from different tables or passages of the source.

The subject of one test is HT-29 cells. Kind of test: HT-29 cell proliferation (Cell Titer-Glo, 6 days). It counts as cell-based. In outline:
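Cells seeded at 4,170 cells/mL in McCoy's 5a with 10% FBS, compound added from DMSO stock, grown 6 days at 37 °C, 5% CO2. Cell Titer-Glo luminescence; inhibition vs 0.3% DMSO control, IC50 by nonlinear regression.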
A general note: In ATP-based viability assays light output follows the ATP content of the culture.

A further test has as its target KIF18A (Homo sapiens (Human), UniProt Q8NI77). Kind of test: KIF18A ATPase activity under tubulin stimulation (ADP-Glo assay). It counts as biochemical. Particulars: KIF18A 30 nM, ATP 150 μM, pig microtubules.
A further test has as its system A2780 cells. Kind of test: A2780 cell anti-proliferation assay. It counts as cell-based. Particulars: 6 days, Cell Titer-Glo. On the procedure:
A2780 (ECACC) cells were cultured in RPMI-1640 complete medium (Gibco, A1049101) containing 10% fetal bovine serum (Gibco, 10099-141C), 100 U penicillin and 100 μg/mL streptomycin (Gibco, 15140-122). The Promega kit Cell Titer-Glo (Promega: G7572) was used in this method for test.
A2780 cells were cultured in T75 cell flasks (Corning, 430641) and the cells were placed in a 37° C., 5% CO2 incubator. Cells were passaged when reaching a cell density of 70%-80%, once every five days. To perform the experiment, the test compounds were dissolved in DMSO to prepare a 10 mM stock solution, and the test compounds were added to the 384-well cell test plate (Corning, 3765) at the predetermined concentration (19.5 nM-[…]) using ECHO. A2780 cells were digested and 4000 cells (60 μL medium) were seeded per well in the test plate. The 384-well plate was then centrifuged at 500 rpm for 1 minute, and then placed in a 37° C., 5% CO2 incubator for 6 days of cultivation. Six days later, the cell culture plate was equilibrated for 10 minutes at room temperature, 25 μL of Cell Titer-Glo was added to each well, and the mixture was shaken and mixed well and let stand for 5 minutes. The luminescence values for samples in various wells were read using a microplate reader in Luminescence mode.
The percentage of inhibition of A2780 cell proliferation by the test compound at each concentration was calculated by comparing with the values of the control group (0.2% DMSO). The IC50 values of the compounds were obtained by concentration-inhibition rate nonlinear regression analysis of the test compounds using GraphPad Prism 9.

Chain of KIF18A (Q8NI77 whole entry): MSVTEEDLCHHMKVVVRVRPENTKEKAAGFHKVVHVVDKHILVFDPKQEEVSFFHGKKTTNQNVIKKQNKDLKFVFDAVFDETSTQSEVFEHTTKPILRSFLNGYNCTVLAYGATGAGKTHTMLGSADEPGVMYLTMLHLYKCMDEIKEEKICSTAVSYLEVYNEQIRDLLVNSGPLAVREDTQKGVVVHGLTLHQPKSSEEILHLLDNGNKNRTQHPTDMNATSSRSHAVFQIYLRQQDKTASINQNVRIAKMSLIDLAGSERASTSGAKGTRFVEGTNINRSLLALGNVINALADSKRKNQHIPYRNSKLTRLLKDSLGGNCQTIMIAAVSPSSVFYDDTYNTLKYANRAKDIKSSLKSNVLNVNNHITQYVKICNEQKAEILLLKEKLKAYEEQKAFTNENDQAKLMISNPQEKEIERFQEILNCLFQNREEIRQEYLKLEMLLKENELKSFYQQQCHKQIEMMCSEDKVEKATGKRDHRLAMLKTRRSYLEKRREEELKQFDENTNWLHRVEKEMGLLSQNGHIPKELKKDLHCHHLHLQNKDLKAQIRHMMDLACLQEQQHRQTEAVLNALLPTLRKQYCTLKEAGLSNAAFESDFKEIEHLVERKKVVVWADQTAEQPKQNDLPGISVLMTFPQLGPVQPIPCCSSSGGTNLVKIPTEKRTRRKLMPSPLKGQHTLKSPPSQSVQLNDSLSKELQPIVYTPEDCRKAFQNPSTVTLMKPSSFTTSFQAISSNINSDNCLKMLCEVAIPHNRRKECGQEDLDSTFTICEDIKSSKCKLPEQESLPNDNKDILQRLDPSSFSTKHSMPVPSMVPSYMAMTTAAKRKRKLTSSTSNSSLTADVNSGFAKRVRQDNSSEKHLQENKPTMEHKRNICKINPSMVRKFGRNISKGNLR
Chain of KIF18A (P02550 whole entry partner): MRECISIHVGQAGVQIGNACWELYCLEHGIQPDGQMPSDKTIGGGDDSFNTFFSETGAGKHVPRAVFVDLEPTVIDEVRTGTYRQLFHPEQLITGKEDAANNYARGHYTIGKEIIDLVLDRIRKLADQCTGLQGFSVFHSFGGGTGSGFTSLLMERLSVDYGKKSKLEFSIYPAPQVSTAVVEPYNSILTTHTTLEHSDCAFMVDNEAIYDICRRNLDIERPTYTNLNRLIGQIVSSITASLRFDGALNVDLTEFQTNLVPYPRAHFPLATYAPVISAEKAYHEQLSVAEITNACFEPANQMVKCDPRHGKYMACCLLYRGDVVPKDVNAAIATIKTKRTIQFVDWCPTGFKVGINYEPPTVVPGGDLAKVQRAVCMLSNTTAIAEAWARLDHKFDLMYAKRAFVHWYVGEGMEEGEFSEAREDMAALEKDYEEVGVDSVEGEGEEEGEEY
Chain of KIF18A (P02554 whole entry partner): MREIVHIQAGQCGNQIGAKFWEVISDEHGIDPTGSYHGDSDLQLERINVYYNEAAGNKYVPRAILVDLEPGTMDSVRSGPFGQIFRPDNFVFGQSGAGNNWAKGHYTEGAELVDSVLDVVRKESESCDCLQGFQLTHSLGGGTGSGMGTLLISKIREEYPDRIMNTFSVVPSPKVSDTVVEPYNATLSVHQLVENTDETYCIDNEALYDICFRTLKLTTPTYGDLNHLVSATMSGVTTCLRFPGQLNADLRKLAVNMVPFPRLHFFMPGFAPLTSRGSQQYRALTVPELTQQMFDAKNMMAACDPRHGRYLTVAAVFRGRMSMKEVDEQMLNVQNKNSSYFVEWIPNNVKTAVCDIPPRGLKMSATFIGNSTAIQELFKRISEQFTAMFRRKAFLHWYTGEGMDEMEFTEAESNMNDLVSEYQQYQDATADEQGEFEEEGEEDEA

The IC50 is the midpoint of a concentration-inhibition curve. Read a low IC50 as higher potency. `O=C(Nc1ccc(F)c2c1cc1n2CCOC1)c1ccc(NS(=O)(=O)CCO)cc1N1CCC(=C(F)F)CC1` [Example 321, 2-(4-(difluoromethylene)piperidin-1-yl)-N-(6-fluoro-3,4-dihydro-1H-[1,4]oxazino[4,3-a]indol-9-yl)-4-((2-hydroxyethyl)sulfonamido)benzamide]: the IC50 was 200 to 1000 nM in the test with HT-29 cells (Homo sapiens, HT-29, 144 h); no more than 50 nM at KIF18A; greater than 10000 nM in the test with A2780 cells (Homo sapiens, A2780, 144 h).

Consider `N#Cc1ccc(NC(=O)c2ccc(NS(=O)(=O)CCO)cc2N2CCC(=C(F)F)CC2)c2cc3n(c12)CCOC3` [Example 364, N-(6-cyano-3,4-dihydro-1H-[1,4]oxazino[4,3-a]indol-9-yl)-2-(4-(difluoromethylene)piperidin-1-yl)-4-((2-hydroxyethyl)sulfonamido)benzamide], for which the IC50 in the test on HT-29 cells (Homo sapiens, HT-29, 144 h) was 200 to 1000 nM; at KIF18A, no more than 50 nM; with A2780 cells (Homo sapiens, A2780, 144 h), 9400 nM.

With `CC1(C)Cn2c(cc3c(NC(=O)c4ccc(NS(=O)(=O)CCO)cc4N4CCC(=C(F)F)CC4)cccc32)CO1` [Example 370, 2-(4-(difluoromethylene)piperidin-1-yl)-N-(3,3-dimethyl-3,4-dihydro-1H-[1,4]oxazino[4,3-a]indol-9-yl)-4-((2-hydroxyethyl)sulfonamido)benzamide], the IC50 in the test with HT-29 cells (Homo sapiens, HT-29, 144 h) was 200 to 1000 nM; against KIF18A it was 50 to 500 nM; in the test with A2780 cells (Homo sapiens, A2780, 144 h), greater than 10000 nM.

As for `CC1(C)Cn2c(cc3c(NC(=O)c4ccc(NS(=O)(=O)CCO)cc4N4CCC5(CC4)CC5)cccc32)CO1` [Example 371, N-(3,3-dimethyl-3,4-dihydro-1H-[1,4]oxazino[4,3-a]indol-9-yl)-4-(2-hydroxyethylsulfonamido)-2-(6-azaspiro[2.5]octan-6-yl)benzamide], the IC50 is no more than 200 nM in the test with HT-29 cells (Homo sapiens, HT-29, 144 h); no more than 50 nM at KIF18A; greater than 10000 nM in the test with A2780 cells (Homo sapiens, A2780, 144 h).

On to `CC1(O)CCCn2c1cc1c(NC(=O)c3ccc(NS(=O)(=O)CCO)cc3N3CCC4(CC3)CC4)cccc12` (stereo not drawn) [Example 372], for which the IC50 in the test on HT-29 cells is no more than 200 nM; against KIF18A, no more than 50 nM; in the test on A2780 cells, greater than 10000 nM.

`O=C(Nc1cccc2c1cc1n2CCC(F)(F)C1)c1ccc(NS(=O)(=O)CCO)cc1N1CCC(=C(F)F)CC1` [Example 374, N-(8,8-difluoro-6,7,8,9-tetrahydropyridino[1,2-a]indol-1-yl)-2-(4-(difluoromethylene)piperidin-1-yl)-4-((2-hydroxyethyl)sulfonamido)benzamide]: the IC50 in the test on HT-29 cells (Homo sapiens, HT-29, 144 h) was no more than 200 nM; against KIF18A, no more than 50 nM; in the test with A2780 cells (Homo sapiens, A2780, 144 h), 8500 nM.

With `N#Cc1ccc(NC(=O)c2ccc(NS(=O)(=O)CCO)cc2N2CCC(=C(F)F)CC2)c2cc3n(c12)CCC(F)(F)C3` [Example 378], the results for the IC50 in the test on HT-29 cells, against KIF18A and in the test with A2780 cells were no more than 200 nM, 50 to 500 nM and 7700 nM, respectively.

On to `N#Cc1ccc(NC(=O)c2ccc(NS(=O)(=O)CCO)cc2N2CCC3(CC2)CC3)c2cc3n(c12)CCC(F)(F)C3` [Example 379], for which the IC50 with HT-29 cells was no more than 200 nM; against KIF18A it was no more than 50 nM; in the test on A2780 cells, 5300 nM.

As to `COc1ccc(NC(=O)c2ccc(NS(=O)(=O)CCO)cc2N2CCC3(CC2)CC3)c2cc3n(c12)CC(C)(C)OC3` [Example 455, 4-((2-hydroxyethyl)sulfonamido)-N-(6-methoxy-3,3-dimethyl-3,4-dihydro-1H-[1,4]oxazinyl[4,3-a]indol-9-yl)-2-(6-azaspiro[2.5]oct-6-yl)benzamide], the IC50 in the test with HT-29 cells (Homo sapiens, HT-29, 144 h) is no more than 200 nM; on KIF18A, 50 to 500 nM; with A2780 cells (Homo sapiens, A2780, 144 h) it was greater than 10000 nM.

Consider `COc1ccc(NC(=O)c2ccc(NS(=O)(=O)CCO)cc2N2CCC(=C(F)F)CC2)c2cc3n(c12)CC(C)(C)OC3` [Example 465, 2-(4-(difluoromethylene)piperidin-1-yl)-4-((2-hydroxyethyl)sulfonamido)-N-(6-methoxy-3,3-dimethyl-3,4-dihydro-1H-[1,4]oxazinyl[4,3-a]indol-9-yl)benzamide], for which the IC50 with HT-29 cells was no more than 200 nM; on KIF18A it was 50 to 500 nM; in the test on A2780 cells it was greater than 10000 nM.
